*1 amine or outer side, *2 acyl side, *3 side chain or, on linkers, in order; H or OH if unused. Where a SMILES comes first, the peptide text is derived from it. Side-chain parts run from the residue outwards. [ ]: non-standard residue; d: D form. The star is where a group is joined. C18 diacid = O=C(O)CCCCCCCCCCCCCCCCC(=O)*; γGlu = O=C(O)[C@H](CCC(=O)[*:2])N[*:1]; Palmitoyl = CCCCCCCCCCCCCCCC(=O)*; AEEA = NCCOCCOCC(=O)O; Aib = CC(C)(N)C(=O)O
Key:
[1] = molecular target: human serum albumin (HSA) (Homo sapiens, UniProt P02768); test: Albumin binding affinity, competition scintillation proximity assay (SPA)
Description: Streptavidin-SPA beads (GE Healthcare RPNQ0009) were incubated with biotinylated HSA for 5 hours. The beads were washed with buffer to remove unbound HSA. […] After 20 hours of gentle rocking at room temperature the plates were centrifuged and counted on a TopCounter.

human GLP-1 receptor = molecular target: T1, human GLP-1 receptor (Homo sapiens, UniProt P43220); test: Stimulation of cAMP formation in a cell line expressing the cloned human GLP-1 receptor; assay type: biochemical; conditions: cAMP production, purified plasma membranes from BHK467-12A (tk-ts13), AlphaScreen cAMP Assay Kit; read-out: Potency [EC50/nM]
T1 construct: expressed in transfected cells; host or cells: BHK467-12A (tk-ts13) baby hamster kidney cells; purified plasma membranes
T1 sequence (P43220 24-463): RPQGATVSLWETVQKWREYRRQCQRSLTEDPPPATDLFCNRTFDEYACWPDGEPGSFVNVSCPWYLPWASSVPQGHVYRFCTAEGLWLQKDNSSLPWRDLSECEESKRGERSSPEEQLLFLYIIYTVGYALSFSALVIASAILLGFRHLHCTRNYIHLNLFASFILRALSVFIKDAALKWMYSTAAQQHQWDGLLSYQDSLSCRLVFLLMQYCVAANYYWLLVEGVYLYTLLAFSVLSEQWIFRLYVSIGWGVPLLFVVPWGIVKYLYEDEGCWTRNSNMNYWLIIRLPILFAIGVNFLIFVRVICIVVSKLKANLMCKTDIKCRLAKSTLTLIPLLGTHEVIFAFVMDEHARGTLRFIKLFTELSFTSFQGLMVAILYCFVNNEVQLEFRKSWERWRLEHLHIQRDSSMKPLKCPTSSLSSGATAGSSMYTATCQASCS
Description: A stable transfected cell line has been prepared at NN A/S, Denmark, and a high expressing clone was selected for screening. The cells were grown at 5% CO2 in DMEM, 5% FCS, 1% Pen/Strep (Penicillin/Streptomycin) and 0.5 mg/ml of the selection marker G418.
Cells at approximate 80% confluence were washed 2× with PBS (Phosphate Buffered Saline) and harvested with Versene (aqueous solution of the tetrasodium salt of ethylenediaminetetraacetic acid), centrifuged 5 min at 1000 rpm and the supernatant removed. The additional steps were all made on ice. […] Suspension in Buffer 2, homogenization and centrifugation was repeated once and the membranes were resuspended in Buffer 2 and ready for further analysis or stored at −80° C.
The functional receptor assay was carried out by measuring the peptide induced cAMP production by The AlphaScreen Technology. […] The capture of cAMP is achieved by using a specific antibody conjugated to acceptor beads. Formed cAMP was counted and measured at a AlphaFusion Microplate Analyzer. The EC50 values were calculated using the Graph-Pad Prisme software (version 5).

human serum albumin (HSA), sequence (P02768 25-609): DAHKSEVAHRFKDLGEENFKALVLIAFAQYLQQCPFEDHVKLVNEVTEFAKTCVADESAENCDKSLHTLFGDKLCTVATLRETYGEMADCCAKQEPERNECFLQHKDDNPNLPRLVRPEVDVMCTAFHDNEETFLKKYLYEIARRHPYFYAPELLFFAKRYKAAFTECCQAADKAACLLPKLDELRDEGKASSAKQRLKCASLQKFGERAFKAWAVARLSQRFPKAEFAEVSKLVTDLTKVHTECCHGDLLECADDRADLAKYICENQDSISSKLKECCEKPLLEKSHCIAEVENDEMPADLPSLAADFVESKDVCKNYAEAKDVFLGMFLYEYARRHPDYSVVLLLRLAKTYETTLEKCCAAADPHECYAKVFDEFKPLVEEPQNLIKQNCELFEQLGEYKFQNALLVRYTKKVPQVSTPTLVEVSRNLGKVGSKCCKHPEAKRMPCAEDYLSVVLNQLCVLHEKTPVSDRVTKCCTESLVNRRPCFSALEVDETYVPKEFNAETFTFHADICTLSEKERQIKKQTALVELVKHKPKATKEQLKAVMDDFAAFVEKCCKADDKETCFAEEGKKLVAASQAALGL

SMILES | EC50 [1] [nM] | EC50 (human GLP-1 receptor) [nM]
CC[C@H](C)[C@H](NC(=O)[C@H](Cc1ccccc1)NC(=O)[C@H](CCC(=O)O)NC(=O)[C@H](CCCNC(=N)N)NC(=O)[C@H](C)NC(=O)[C@H](C)NC(=O)[C@H](CCC(N)=O)NC(=O)[C@H](CCC(=O)O)NC(=O)[C@H](CCC(=O)O)NC(=O)[C@H](CC(C)C)NC(=O)[C@H](Cc1ccc(O)cc1)NC(=O)[C@H](CO)NC(=O)[C@H](CO)NC(=O)[C@@H](NC(=O)[C@H](CC(=O)O)NC(=O)[C@H](CO)NC(=O)[C@@H](NC(=O)[C@H](Cc1ccccc1)NC(=O)[C@@H](NC(=O)CNC(=O)[C@H](CCC(=O)O)NC(=O)[C@H](C)NC(=O)CCc1c[nH]cn1)[C@@H](C)O)[C@@H](C)O)C(C)C)C(=O)N[C@@H](C)C(=O)N[C@@H](Cc1c[nH]c2ccccc12)C(=O)N[C@@H](CC(C)C)C(=O)N[C@H](C(=O)N[C@@H](CCCNC(=N)N)C(=O)NCC(=O)N[C@@H](CCCNC(=N)N)C(=O)N[C@@H](CCCCNC(=O)COCCOCCNC(=O)CC[C@H](NC(=O)CC[C@H](NC(=O)CCCCCCCCCCCNC(=O)CCCS(=O)(=O)NC(=O)CCCCCCCCCCCCCCCc1nnn[nH]1)C(=O)O)C(=O)O)C(N)=O)C(C)C [Example 13, N-epsilon37-[2-(2-{2-[(S)-4-Carboxy-4-((S)-4-carboxy-4-{12-[4-(16-(1H-tetrazol-5-yl)hexadecanoylsulfamoyl)butyrylamino]dodecanoylamino}butyrylamino)butyrylamino]ethoxy}ethoxy)acetyl][DesaminoHis7,Glu22,Arg26,Arg34,Lys37]GLP-1-(7-37)amide] | 100 to 150 | 1.97
CCCCCCCCCCCCCCCC(=O)N[C@@H](CCC(=O)NCCOCCOCC(=O)NCCOCCOCC(=O)NCCCC[C@H](NC(=O)[C@H](CCCNC(=N)N)NC(=O)CNC(=O)[C@H](CCCNC(=N)N)NC(=O)[C@@H](NC(=O)[C@H](CC(C)C)NC(=O)[C@H](Cc1c[nH]c2ccccc12)NC(=O)[C@H](C)NC(=O)[C@@H](NC(=O)[C@H](Cc1ccccc1)NC(=O)[C@H](CCC(=O)O)NC(=O)[C@H](CCCNC(=N)N)NC(=O)[C@H](C)NC(=O)[C@H](C)NC(=O)[C@H](CCC(N)=O)NC(=O)[C@H](CCC(=O)O)NC(=O)[C@H](CCC(=O)O)NC(=O)[C@H](CC(C)C)NC(=O)[C@H](Cc1ccc(O)cc1)NC(=O)[C@H](CO)NC(=O)[C@H](CO)NC(=O)[C@@H](NC(=O)[C@H](CC(=O)O)NC(=O)[C@H](CO)NC(=O)[C@@H](NC(=O)[C@H](Cc1ccccc1)NC(=O)[C@@H](NC(=O)CNC(=O)[C@H](CCC(=O)O)NC(=O)[C@H](C)NC(=O)CCc1c[nH]cn1)[C@@H](C)O)[C@@H](C)O)C(C)C)[C@@H](C)CC)C(C)C)C(N)=O)C(=O)O [Example 18, N-epsilon37-{2-(2-(2-(2-[2-(2-(4-(hexadecanoylamino)-4-carboxybutyrylamino)ethoxy)ethoxy]acetyl)ethoxy)ethoxy)acetyl)}-[desaminoHis7,Glu22, Arg26,Arg34,Lys 37] (GLP-1-(7-37)amide] | > 2000 | 0.02
CC[C@H](C)[C@H](NC(=O)[C@H](Cc1ccccc1)NC(=O)[C@H](CCC(=O)O)NC(=O)[C@H](CCCNC(=N)N)NC(=O)[C@H](C)NC(=O)[C@H](C)NC(=O)[C@H](CCC(N)=O)NC(=O)[C@H](CCC(=O)O)NC(=O)[C@H](CCC(=O)O)NC(=O)[C@H](CC(C)C)NC(=O)[C@H](Cc1ccc(O)cc1)NC(=O)[C@H](CO)NC(=O)[C@H](CO)NC(=O)[C@@H](NC(=O)[C@H](CC(=O)O)NC(=O)[C@H](CO)NC(=O)[C@@H](NC(=O)[C@H](Cc1ccccc1)NC(=O)[C@@H](NC(=O)CNC(=O)[C@H](CCC(=O)O)NC(=O)[C@H](C)NC(=O)CCc1c[nH]cn1)[C@@H](C)O)[C@@H](C)O)C(C)C)C(=O)N[C@@H](C)C(=O)N[C@@H](Cc1c[nH]c2ccccc12)C(=O)N[C@@H](CC(C)C)C(=O)N[C@H](C(=O)N[C@@H](CCCNC(=N)N)C(=O)NCC(=O)N[C@@H](CCCNC(=N)N)C(=O)N[C@@H](CCCCNC(=O)COCCOCCNC(=O)COCCOCCNC(=O)CC[C@H](NC(=O)CCCCCCCCCCCCCCCCCCC(=O)O)C(=O)O)C(=O)O)C(C)C [Example 22, N-epsilon37-[2-(2-{2-[2-(2-{2-[(S)-4-Carboxy-4-(19-carboxynonadecanoylamino)butyrylamino]ethoxy}ethoxy)acetylamino]ethoxy}ethoxy)acetyl][DesaminoHis7,Glu22,Arg26,Arg34,Lys37]GLP-1-(7-37)] | 400 to 800 | 1.35
CC[C@H](C)[C@H](NC(=O)[C@H](Cc1ccccc1)NC(=O)[C@H](CCC(=O)O)NC(=O)[C@H](CCCNC(=N)N)NC(=O)[C@H](C)NC(=O)[C@H](C)NC(=O)[C@H](CCC(N)=O)NC(=O)[C@H](CCC(=O)O)NC(=O)[C@H](CCC(=O)O)NC(=O)[C@H](CC(C)C)NC(=O)[C@H](Cc1ccc(O)cc1)NC(=O)[C@H](CO)NC(=O)[C@H](CO)NC(=O)[C@@H](NC(=O)[C@H](CC(=O)O)NC(=O)[C@H](CO)NC(=O)[C@@H](NC(=O)[C@H](Cc1ccccc1)NC(=O)[C@@H](NC(=O)CNC(=O)[C@H](CCC(=O)O)NC(=O)C(C)(C)NC(=O)[C@@H](N)Cc1c[nH]cn1)[C@@H](C)O)[C@@H](C)O)C(C)C)C(=O)N[C@@H](C)C(=O)N[C@@H](CCCCNC(=O)COCCOCCNC(=O)COCCOCCNC(=O)CC[C@H](NC(=O)CCCCCCCCCCCCCCCCC(=O)O)C(=O)O)C(=O)N[C@@H](CC(C)C)C(=O)N[C@H](C(=O)N[C@@H](CCCCN)C(=O)NCC(=O)N[C@@H](CCCNC(=N)N)C(=O)NCC(=O)O)C(C)C [Example 23, N-epsilon31-[2-(2-{2-[2-(2-{2-[4-Carboxy-4-(17-carboxy-heptadecanoylamino)butyrylamino]ethoxy}ethoxy)acetylamino]ethoxy}ethoxy)acetyl][Aib8,Glu22,Arg26,Lys31]GLP-1-(7-37)] (H-H[Aib]EGTFTSDVSSYLEEQAAREFIAK([AEEA-AEEA-γGlu-C18 diacid])LVKGRG-OH) | 1500 to 2000 | 0.02
CCCCCCCCCCCCCCCC(=O)N[C@@H](CCC(=O)NCCOCCOCC(=O)NCCOCCOCC(=O)NCCCC[C@H](NC(=O)[C@H](Cc1ccc(O)cc1)NC(=O)[C@H](CO)NC(=O)[C@H](CO)NC(=O)[C@@H](NC(=O)[C@H](CC(=O)O)NC(=O)[C@H](CO)NC(=O)[C@@H](NC(=O)[C@H](Cc1ccccc1)NC(=O)[C@@H](NC(=O)CNC(=O)[C@H](CCC(=O)O)NC(=O)C(C)(C)NC(=O)[C@@H](N)Cc1c[nH]cn1)[C@@H](C)O)[C@@H](C)O)C(C)C)C(=O)N[C@@H](CCC(=O)O)C(=O)N[C@@H](CCC(=O)O)C(=O)N[C@@H](CCC(N)=O)C(=O)N[C@@H](C)C(=O)N[C@@H](C)C(=O)N[C@@H](CCCNC(=N)N)C(=O)N[C@@H](CCC(=O)O)C(=O)N[C@@H](Cc1ccccc1)C(=O)N[C@H](C(=O)N[C@@H](CCC(=O)O)C(=O)N[C@@H](Cc1c[nH]c2ccccc12)C(=O)N[C@@H](CC(C)C)C(=O)N[C@H](C(=O)N[C@@H](CCCCN)C(=O)NCC(=O)N[C@@H](CCCNC(=N)N)C(=O)N1CCC[C@H]1C(N)=O)C(C)C)[C@@H](C)CC)C(=O)O [Example 24, N-epsilon20-(2-{2-[2-(2-{2-[2-((S)-4-Carboxy-4-hexadecanoylamino-butyrylamino)ethoxy]ethoxy}acetylamino)ethoxy]ethoxy}-acetyl)[Aib8,Lys20,Glu22,Arg26,Glu30,Pro37]GLP-1-(7-37)amide] (H-H[Aib]EGTFTSDVSSYK([AEEA-AEEA-γGlu-Palmitoyl])EEQAAREFIEWLVKGRP-NH2) | 1500 to 2000 | 0.01

Other lines, results leading:

EC50 [1] [nM] | EC50 (human GLP-1 receptor) [nM] | SMILES
> 2000 | 1.27 | CC[C@H](C)[C@H](NC(=O)[C@H](Cc1ccccc1)NC(=O)[C@H](CCC(=O)O)NC(=O)[C@H](CCCNC(=N)N)NC(=O)[C@H](C)NC(=O)[C@H](C)NC(=O)[C@H](CCC(N)=O)NC(=O)[C@H](CCC(=O)O)NC(=O)[C@H](CCC(=O)O)NC(=O)[C@H](CC(C)C)NC(=O)[C@H](Cc1ccc(O)cc1)NC(=O)[C@H](CO)NC(=O)[C@H](CO)NC(=O)[C@@H](NC(=O)[C@H](CC(=O)O)NC(=O)[C@H](CO)NC(=O)[C@@H](NC(=O)[C@H](Cc1ccccc1)NC(=O)[C@@H](NC(=O)CNC(=O)[C@H](CCC(=O)O)NC(=O)[C@H](C)NC(=O)CCc1c[nH]cn1)[C@@H](C)O)[C@@H](C)O)C(C)C)C(=O)N[C@@H](C)C(=O)N[C@@H](Cc1c[nH]c2ccccc12)C(=O)N[C@@H](CC(C)C)C(=O)N[C@H](C(=O)N[C@@H](CCCNC(=N)N)C(=O)NCC(=O)N[C@@H](CCCNC(=N)N)C(=O)N[C@@H](CCCCNC(=O)CCCS(=O)(=O)NC(=O)CCCCCCCCCCCCCCCc1nnn[nH]1)C(N)=O)C(C)C [Example 21, N-epsilon37-[4-(16-(1H-Tetrazol-5-yl)hexadecanoylsulfamoyl)butyryl][DesaminoHis7,Glu22,Arg26,Arg34,Lys37]GLP-1-(7-37)amide]
150 to 200 | 0.36 | CC[C@H](C)[C@H](NC(=O)[C@H](Cc1ccccc1)NC(=O)[C@H](CCC(=O)O)NC(=O)[C@H](CCCNC(=N)N)NC(=O)[C@H](C)NC(=O)[C@H](C)NC(=O)[C@H](CCC(N)=O)NC(=O)[C@H](CCC(=O)O)NC(=O)[C@H](CCC(=O)O)NC(=O)[C@H](CC(C)C)NC(=O)[C@H](Cc1ccc(O)cc1)NC(=O)[C@H](CO)NC(=O)[C@H](CO)NC(=O)[C@@H](NC(=O)[C@H](CC(=O)O)NC(=O)[C@H](CO)NC(=O)[C@@H](NC(=O)[C@H](Cc1ccccc1)NC(=O)[C@@H](NC(=O)CNC(=O)[C@H](CCC(=O)O)NC(=O)[C@H](C)NC(=O)CCc1c[nH]cn1)[C@@H](C)O)[C@@H](C)O)C(C)C)C(=O)N[C@@H](C)C(=O)N[C@@H](Cc1c[nH]c2ccccc12)C(=O)N[C@@H](CC(C)C)C(=O)N[C@H](C(=O)N[C@@H](CCCNC(=N)N)C(=O)NCC(=O)N[C@@H](CCCNC(=N)N)C(=O)N[C@@H](CCCCNC(=O)COCCOCCNC(=O)CC[C@H](NC(=O)CC[C@H](NC(=O)CC[C@H](NC(=O)CCCCCCCCCCCCCCCCCCC(=O)O)C(=O)O)C(=O)O)C(=O)O)C(=O)O)C(C)C [Example 25, N-epsilon37-(2-{2-[2-((S)-4-Carboxy-4-{(S)-4-carboxy-4-[(S)-4-carboxy-4-(19-carboxy-nonadecanoylamino)butyrylamino]butyrylamino}butyrylamino)ethoxy]ethoxy}acetyl)[DesaminoHis7,Glu22,Arg26,Arg34,Lys37]GLP-1-(7-37)]
